Test results as given in PubChem BioAssay (NCI).
“And” between values parts separate entries of the source, which are not always exact repeats. Equal entries are not always repeated.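 Where inhibition never reached the appropriate level, the endpoint shown equals the highest concentration tested. Otherwise, values were interpolated linearly from a five-concentration, 48-hour dose response in 96-well plates. Abbreviation: GI50, concentration required for 50% inhibition of growth. TGI: total growth inhibition.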

Legend:
Assay in all cases: NCI tumour cell line growth inhibition, 48 h
RXF-631 renal = system: RXF-631 renal
XF 498 CNS = system: XF 498 CNS
DMS 273 small cell lung = system: DMS 273 small cell lung
SNB-78 CNS = system: SNB-78 CNS
KM20L2 colon = system: KM20L2 colon
DMS 114 small cell lung = system: DMS 114 small cell lung
M19-MEL melanoma = system: M19-MEL melanoma
HOP-18 NSCLC = system: HOP-18 NSCLC
MDA-N = system: MDA-N
SN12K1 renal = system: SN12K1 renal
P388/ADR leukemia = system: P388/ADR leukemia
P388 leukemia = system: P388 leukemia

Structure (SMILES)	TGI (RXF-631 renal)	TGI (XF 498 CNS)	TGI (DMS 273 small cell lung)	TGI (SNB-78 CNS)	TGI (KM20L2 colon)	TGI (DMS 114 small cell lung)	TGI (M19-MEL melanoma)	TGI (HOP-18 NSCLC)	further results
N#Cc1cccc(C2SCc3nc4ccccc4n32)c1 (stereo not given)	> 100 µM	> 100 µM	> 100 µM	> 100 µM	> 100 µM	> 100 µM			
Cc1c(Cl)ccc2[s+]snc12	> 100 µM	55.2 µM	> 100 µM	> 100 µM	> 100 µM		> 100 µM	95.2 µM	
O=C1C(=C2C(=O)c3ccccc3[N+]2=O)N([O-])c2ccccc21			89.5 µM	> 100 µM		33.9 µM	68.4 µM	71.5 µM	
C#CC[C@]12CC(=O)CC[C@H]1CC1(C2)OCCO1	> 100 µM		> 100 µM	> 100 µM	> 100 µM	> 100 µM	> 100 µM	> 100 µM	
O=C(CC1(O)C(=O)Nc2ccc(Br)cc21)c1cccc([N+](=O)[O-])c1 (stereo not given)	> 100 µM		> 100 µM	> 100 µM	> 100 µM			> 100 µM	
O=C(c1ccccc1)N1CCc2c([nH]c3ccccc23)C1	> 100 µM	55 µM	> 100 µM		> 100 µM	65.1 µM	> 100 µM	> 100 µM	
C/C=C/C(C/C=C(\C)CO[Si](C)(C)C(C)(C)C)O[Si](C)(C)C(C)(C)C (stereo not given)									TGI (MDA-N): > 100 µM
CC1(C)OC2OC(/C=C/[N+](=O)[O-])C3OC(C)(C)OC3C2O1 (stereo not given)			40.4 µM	44 µM	39.6 µM	34.5 µM	27.7 µM	40.8 µM	
COc1cc(CC2c3cc(OC)c(OC)cc3CCN2C)c(C(=O)O)cc1OC (stereo not given)		> 100 µM	> 100 µM	> 100 µM	> 100 µM	> 100 µM	> 100 µM	> 100 µM	
COC(=O)N1C=Cc2c(c(C)c3c([nH]c4ccccc43)c2C)C1C (stereo not given)	37.5 µM	34.2 µM	39 µM		29.3 µM	40 µM	37.6 µM		
N#CC1(C2CC(=O)N(c3ccccc3)C2=O)CCCCC1=O (stereo not given)	> 100 µM	> 100 µM	> 100 µM	> 100 µM		> 100 µM	> 100 µM	> 100 µM	
CCN(CC)CCN1C(=O)c2cccc3cc(N)cc(c23)C1=O									TGI (MDA-N): 23.8 µM
Cc1cc2c(=O)cc(-c3ccncc3)oc2c(C(N)=O)c1C		> 100 µM	> 100 µM	> 100 µM	> 100 µM		> 100 µM	> 100 µM	
CC[C@H]1CNC(=O)CC1CC(=O)OC (stereo not given in full)	> 100 µM		> 100 µM	> 100 µM		> 100 µM			
O=C(Nc1cc(Cl)ccc1Cl)c1cc2ccccc2oc1=O			> 100 µM		> 100 µM	> 100 µM	> 100 µM	83 µM	
CC(=O)O[C@@H]1[C@H]2O[C@H]2[C@H]2O[C@@]2(COC(=O)c2ccccc2)[C@H]1OC(C)=O									TGI (MDA-N): > 100 µM
O=C(/C=C/c1c[nH]c2ccccc12)c1ccccc1O									TGI (MDA-N): 17.5 µM
c1c[nH]c(CN2CCN(Cc3ncc[nH]3)CC2)n1									TGI (MDA-N): > 100 µM

Structure (SMILES)	TGI (RXF-631 renal)	TGI (XF 498 CNS)	TGI (DMS 273 small cell lung)	TGI (SNB-78 CNS)	TGI (KM20L2 colon)	TGI (DMS 114 small cell lung)	TGI (M19-MEL melanoma)	TGI (HOP-18 NSCLC)	further results
CCCCP1(=O)C=CC(Cl)=C(C)C1 (stereo not given)				> 100 µM	> 100 µM		> 100 µM	> 100 µM	
CC(C)CC(=O)O[C@H]1C(=O)O[C@@H]2C[C@H]3[C@H](C)C(=O)C(O[C@@H]4O[C@H](CO)[C@@H](O)[C@H](O)[C@H]4O)=C[C@]3(C)[C@H]3[C@@H](O)[C@H](O)[C@]4(C(=O)O)OC[C@]32[C@@H]14									TGI (MDA-N): > 100 µM
COc1cc(Br)c(C2OCCCO2)cc1OCc1ccccc1	> 100 µM		> 100 µM	> 100 µM	> 100 µM	> 100 µM	> 100 µM		
C/C(=N\NC(N)=S)c1ccc(Oc2ccccc2)cc1	43.7 µM		20.7 µM	47.7 µM	26.5 µM	17.9 µM	47.2 µM	80 µM	
O=P(c1ccccc1)(c1ccccc1)C1CC=C2CCCCCC2C1 (stereo not given)	85.4 µM	91.6 µM	64.5 µM	> 100 µM	> 10 µM	68.2 µM	> 100 µM	44.2 µM	
BrC(/C=N/Nc1nnc(-c2ccccc2)c(-c2ccccc2)n1)C(Br)c1ccccc1 (stereo not given)	> 100 µM	82.7 µM	> 100 µM	78.1 µM	> 100 µM	> 100 µM	> 100 µM		
CCc1cccc(CC)c1NC1=CC(=O)C(=O)c2ccccc21	> 100 µM		41.6 µM	80.6 µM	48.9 µM	27.6 µM	17.2 µM	62.9 µM	
Cc1cc(Br)ccc1N=NC1C(=O)ON=C1c1ccccc1 (stereo not given)	> 100 µM		> 100 µM	> 100 µM	> 100 µM	> 100 µM	> 100 µM	> 100 µM	
CC(=O)[O-].O=C([CH-]C(=O)c1ccccc1)c1ccccc1.O=C([CH-]C(=O)c1ccccc1)c1ccccc1.[Dy+3]					44.7 µM				GI50 (KM20L2 colon): 12.9 µM
O=C(N=Nc1c(O)[nH]c2c(Cl)cc(Cl)cc12)C(=O)Nc1cccc(C(F)(F)F)c1									TGI (MDA-N): > 100 µM
CCCCCCCCCCCCCCCCCCCCCCC(=O)N[C@H]1CCc2cc(OC)c(OC)c(OC)c2-c2ccc(SC)c(=O)cc21	51.4 µM	61.3 µM	> 100 µM	> 100 µM	37.1 µM		> 100 µM		
C=CC(C)(C)[C@@]12CC3C(=O)N[C@@H](Cc4ccccc4)C(=O)N3[C@@H]1N(C(C)=O)c1ccccc12 (stereo not given in full)	> 100 µM	> 100 µM	> 100 µM	> 100 µM	> 100 µM	> 100 µM	> 100 µM	> 100 µM	
CS(=O)c1cc(=O)c2ccccc2s1 (stereo not given)		7.57 µM	19.5 µM	27.6 µM	13.4 µM	9.87 µM	11.9 µM	19.7 µM	TGI (SN12K1 renal): 32.8 µM; TGI (P388/ADR leukemia): > 22.2 µM; TGI (P388 leukemia): 6.79 µM; TGI (MDA-N): 7.13 µM
CC(=O)Nc1ccc(/C=C/C(=O)c2sc(-n3nc(-c4ccccc4)cc3-c3ccccc3)nc2C)cc1	> 100 µM		> 100 µM		> 100 µM	> 100 µM	> 100 µM		GI50 (RXF-631 renal): > 100 µM; GI50 (M19-MEL melanoma): > 100 µM; GI50 (DMS 273 small cell lung): > 100 µM; GI50 (KM20L2 colon): > 100 µM
O=C(/C=C/c1ccccc1)c1ccccn1									TGI (MDA-N): 30.5 µM and 67.4 µM
O=C1N(c2ccccc2)C2(O)C(=O)c3ccccc3C2(O)N1c1ccccc1 (stereo not given)			> 100 µM	> 100 µM	> 100 µM	> 100 µM	> 100 µM	> 100 µM	
O=c1ccn([C@@H]2C[C@H](CO)CS(=O)C2)c(=O)[nH]1 (stereo not given in full)			> 100 µM		> 100 µM	> 100 µM	> 100 µM	> 100 µM	
CCOc1ccc(/C=C/C(=O)c2sc(NNC(C)=O)nc2C)cc1			> 100 µM	> 100 µM	> 100 µM	> 100 µM	> 100 µM	> 100 µM	
